Laboratory results from ChEMBL document CHEMBL5576059, “Design, synthesis and molecular docking study of novel triazole-quinazolinone hybrids as antimalarial and antitubercular agents” (Bioorg Med Chem Lett, 2024).
In brackets after ≈: the same amount, converted by molar mass.

Tests used:
RAW264.7 = assay: Cytotoxicity against mouse RAW264.7 cells at 25 microg/ml by MTT assay; type: toxicity, cell-based; details: dose 25 µg/ml
Plasmodium falciparum = assay: Antimalarial activity against Plasmodium falciparum assessed as inhibition of parasite growth; type: functional, organism-based
[1] = system: Mycobacterium tuberculosis; assay: Antitubercular activity against Mycobacterium tuberculosis H37RV ATCC27294 assessed as inhibition of bacterial growth by MABA assay; type: functional
[2] = Cytotoxicity against mouse RAW264.7 cells assessed as inhibition of cell growth at 78.29 uM by MTT assay relative to control; type: toxicity, cell-based
[3] = Cytotoxicity against mouse RAW264.7 cells assessed as inhibition of cell growth at 66.37 uM by MTT assay relative to control; type: toxicity, cell-based
[4] = Cytotoxicity against mouse RAW264.7 cells assessed as inhibition of cell growth at 81.35 uM by MTT assay relative to control; type: toxicity, cell-based

SMILES	Activity (RAW264.7)	IC50 (Plasmodium falciparum) [µM]	MIC [1] [µM]	inhibition at 78.29 µM [2] [%]	inhibition at 66.37 µM [3] [%]	inhibition at 81.35 µM [4] [%]
Cc1ccc(-n2cc(-c3nc4ccccc4c(=O)[nH]3)nn2)cc1	Non-Toxic	3.1	> 82.4	–	–	–
O=c1[nH]c(-c2cn(-c3ccc(F)cc3)nn2)nc2ccccc12	Non-Toxic	1.95	> 81.4	–	–	–
Cc1cc(C)c(-n2cc(-c3nc4ccccc4c(=O)[nH]3)nn2)c(C)c1	Non-Toxic	2.9	> 75.4	–	–	–
CCc1ccc(-n2cc(-c3nc4ccccc4c(=O)[nH]3)nn2)cc1	Non-Toxic	3.25	78.8 (≈ 25 µg/mL)	–	–	–
O=c1[nH]c(-c2cn(-c3ccc(Cl)cc3)nn2)nc2ccccc12	Non-Toxic	1.92	77.2 (≈ 25 µg/mL)	–	–	–
Cc1ccc(-n2cc(-c3nc4ccccc4c(=O)[nH]3)nn2)c([N+](=O)[O-])c1	Non-Toxic	2.35	> 71.8	–	–	–
O=c1[nH]c(-c2cn(-c3ccccc3)nn2)nc2ccccc12	Non-Toxic	2.56	> 86.4	–	–	–
O=c1[nH]c(-c2cn(-c3ccc([N+](=O)[O-])cc3)nn2)nc2ccccc12	Non-Toxic	1.97	74.8 (≈ 25 µg/mL)	–	–	–
COc1ccc(-n2cc(-c3nc4ccccc4c(=O)[nH]3)nn2)cc1	–	2.63	19.6 (≈ 6.25 µg/mL)	24.3	–	–
O=c1[nH]c(-c2cn(-c3ccc(Br)cc3)nn2)nc2ccccc12	–	1.96	33.2 (≈ 12.2 µg/mL)	–	29.8	–
O=c1[nH]c(-c2cn(-c3ccccc3F)nn2)nc2ccccc12	–	2.21	40.7 (≈ 12.5 µg/mL)	–	–	27.2
O=c1[nH]c(-c2cn(-c3cccc(Cl)c3)nn2)nc2ccccc12	Non-Toxic	2.78	> 77.2	–	–	–
CC[C@@H](CO)NCCN[C@@H](CC)CO [ETHAMBUTOL]	–	–	7.64 (≈ 1.56 µg/mL)	–	–	–
C=C[C@H]1CN2CC[C@H]1C[C@H]2[C@H](O)c1ccnc2ccc(OC)cc12 [QUININE]	–	0.826	–	–	–	–
CO[C@H]1/C=C/O[C@@]2(C)Oc3c(C)c(O)c4c(O)c(c(/C=N/N5CCN(C)CC5)c(O)c4c3C2=O)NC(=O)/C(C)=C\C=C\[C@H](C)[C@H](O)[C@@H](C)[C@@H](O)[C@@H](C)[C@H](OC(C)=O)[C@@H]1C [RIFAMPIN]	–	–	0.13 (≈ 0.107 µg/mL)	–	–	–
